# In patent US12377067B2, “Methods of treating PAH with combinations of ralinepag and other agents” (Arena Pharmaceuticals, Inc., priority 2016, dated 2025):
# Like-named read-outs stand apart in the source and are kept apart here.
# What was measured:
# [1] = test system: human PASMCs from PAH patients; experiment: Cell proliferation assay (MTS), serum-induced growth; format: cell-based; settings: for Emax: read-out: Emax (% Inhibition); for times more potent than ralinepag alone: individual fits (Table 1)
# [2] = 22-week randomized, double-blind, placebo-controlled clinical trial; format: in vivo, patients
# Procedure: A 22-week randomized, double-blind, placebo-controlled study with a dose titration period of up to 9 weeks was conducted. Sixty-one patients were randomized 2:1 ralinepag to placebo. Right Heart Catheterization (RHC) measurements were obtained prior to study Day 1 of the dose titration period and at Week 22. The following values were obtained and recorded: pulmonary artery pressure (PAP) (systolic, diastolic, and mean), heart rate (HR), right atrial pressure (RAP), pulmonary capillary wedge pressure (PCWP) right ventricular pressure (RVP) and cardiac output (CO), pulmonary vascular resistance (PVR), arterial and mixed venous oxygen saturation (FiO2) (if applicable). Systemic vascular resistance (SVR) was estimated from blood pressure measurements. All patients were receiving background PAH treatment with an endothelin receptor antagonist, phosphodiesterase type-5-inhibitor, or soluble guanylate cyclase activator, alone or in combination.
# The primary efficacy endpoint for the study was change from baseline in PVR after 22 weeks of treatment. Additional analyses included change from baseline in 6 MWD after 22 weeks of treatment, hemodynamics, and safety and tolerability. Ralinepag was administered as a capsule in 0.01, 0.02, 0.03, 0.04, and 0.10 mg dose strengths.
# The starting dose of ralinepag was 0.01 mg twice daily. The dose of ralinepag was titrated according to patient tolerability. If the initial dose was tolerated (0.01 mg twice daily), then the dose was increased once a week in the following fashion: 0.02 mg twice daily, 0.03 mg twice daily, 0.04 mg twice daily, 0.06 mg twice daily, 0.08 mg, 0.1 mg twice daily, 0.2 mg twice daily and 0.3 mg twice daily. The dose was optionally escalated to a possible maximum total daily dose of 0.6 mg (0.3 mg twice daily), pending tolerability.
# [3] = test system: human PASMCs from PAH patients; experiment: Cyclic AMP assay; format: cell-based
# Procedure: Human PASMCs from PAH patients were grown to 70-80% confluence in 12 well plates in DMEM/F12 containing 9% foetal bovine serum (FBS), penicillin (50 U/ml)/streptomycin (50 ag/ml). To assess the time-course of cAMP elevation, cells were stimulated with 100 nM ralinepag for varying times (0.5, 1, 2, 4, 8, 24, 48 hours). This dose of ralinepag was chosen on the basis that it was close to the EC50 for cAMP generation in preliminary experiments. In other experiments, the IP receptor agonist was added for a specified time (60 minutes) over a full concentration range (0.1-10,000 nM) in the absence and presence of […] of the IP receptor antagonist, RO-1138452. The antagonist is added 30 minutes beforehand and remained throughout.
# To extract cyclic AMP, the medium was aspirated and PASMCs cells incubated in 0.1 M HCl for 20 minutes on ice followed by centrifugation at 1000 g for 10 minutes at 4° C. The protein concentration in the supernatant was determined using a […] protein assay (BCA, Novagen, EmD Chemicals, CA, USA). Intracellular cyclic AMP was measured using a competitive enzyme immunoassay 96 well plate kit (ADI-900-163, Enzo Life Sciences, Exeter, UK) and the assay performed according to the manufacturer's instructions. Each sample was run in duplicate and data expressed as pmol of cAMP per mg of total protein for each individual sample. Basal levels were subtracted from each agonist concentration data point. Given the large variation (˜15-fold) in cAMP generation from different patient samples, data was also normalized to the peak cyclic AMP response (assigned 100%) in each cell isolate.
# Half-life in vivo = settings: irrespective of the dose
smiles,measurement,setting,value
"O=C(O)COC[C@H]1CC[C@H](COC(=O)N(c2ccccc2)c2ccc(Cl)cc2)CC1 [ralinepag, 2-(((1r,4r)-4-(((4-chlorophenyl)(phenyl)carbamoyloxy)methyl)cyclohexyl)methoxy)acetic acid]",inhibition at 0.001 µM,"[1]; Homo sapiens, PASMC, 1 nM ralinepag in the presence of 100 nM sildenafil",27%
same,inhibition at 0.01 µM,"[1]; Homo sapiens, PASMC, 10 nM ralinepag combined with 100 nM riociguat",45%
same,inhibition at 10 µM,"[1]; Homo sapiens, PASMC, 10 μM ralinepag in the presence of 100 nM sildenafil",56%
same,inhibition at 10 µM,"[1]; Homo sapiens, PASMC, 10 μM ralinepag in the presence of 100 nM treprostinil",69%
same,EC50,"[1]; Homo sapiens, PASMC, 96 h, log EC50 printed with negative sign, ralinepag alone or + 100 nM drug, from individual fits, 9% FBS + 0.1% DMSO, 4 days, read-out: Log EC50 (n = 5) (converted)",25.1 nM
same,EC50,"[1]; Homo sapiens, PASMC, 96 h, log EC50 printed with negative sign, ralinepag alone or + 100 nM drug, from mean fits, 9% FBS + 0.1% DMSO, 4 days, read-out: Log EC50 (n = 5) (converted)",44.7 nM
same,Emax,"[1]; Homo sapiens, PASMC, 96 h, ralinepag alone or + 100 nM drug, from individual fits, 9% FBS + 0.1% DMSO, 4 days",58.2 ± 4.1%
same,EC50,"[1]; Homo sapiens, PASMC, 96 h, ralinepag alone or + 100 nM drug, from mean fits, 9% FBS + 0.1% DMSO, 4 days, read-out: EC50",44 nM
same,Emax,"[1]; Homo sapiens, PASMC, 96 h, ralinepag alone or + 100 nM drug, from mean fits, 9% FBS + 0.1% DMSO, 4 days",59.6 ± 17.3%
same,EC50,"[1]; Homo sapiens, PASMC, ralinepag in the presence of 100 nM sildenafil, individual fits, read-out: EC50",5 nM
same,dose of ralinepag at which cell proliferation was inhibited,[1]; combined with 100 nM macitentan,0.1 nM
same,dose of ralinepag at which significant inhibition of cell growth occurred,[1]; combined with 100 nM treprostinil,0.1 nM
same,fold lower dose of ralinepag giving significant inhibition of cell growth,[1]; combined with 100 nM treprostinil vs ralinepag alone,10 fold
same,antiproliferative effect compared to ralinepag alone,"[1]; in the presence of 100 nM bosentan, mean data",not more effective
same,antiproliferative effect compared to ralinepag alone,"[1]; in the presence of 100 nM macitentan, mean data",not significantly more effective
same,fold lower dose of ralinepag giving significant inhibition of cell growth,[1]; in the presence of 100 nM riociguat vs ralinepag alone,100 fold
same,antiproliferative effect compared to ralinepag alone,"[1]; in the presence of 100 nM riociguat, 0.01-10,000 nM ralinepag, mean data",significantly more effective at 10 nM and above
same,times more potent than ralinepag alone,[1]; in the presence of 100 nM riociguat,~2.5 times
same,potency enhancement,"[1]; in the presence of 100 nM riociguat, mean fits (Table 2)",8 fold
same,antiproliferative effect compared to ralinepag alone,"[1]; in the presence of 100 nM sildenafil, 0.01-10,000 nM ralinepag","significantly (P<0.001, two-way ANOVA) more effective"
same,times more potent than ralinepag alone,[1]; in the presence of 100 nM sildenafil,~5 times
same,maximum response compared to ralinepag alone,[1]; in the presence of riociguat or treprostinil (100 nM),significantly greater maximum response
same,concentration at which ralinepag started to significantly inhibit cell proliferation,"[1]; ralinepag alone, not lowered by 100 nM bosentan",InM
same,6-minute walk distance (6MWD),[2]; after 22 weeks,numerical improvement
same,change from baseline in pulmonary vascular resistance (PVR),"[2]; after 22 weeks, compared to placebo, on background PAH treatment",statistically significant change from baseline
same,adverse events,"[2]; human, in vivo",consistent with other prostacyclin treatments
same,EC50,"[3]; Homo sapiens, PASMC, preliminary experiments, read-out: EC50 for cAMP generation",~100 nM
same,maximal effect compared with treprostinil,[3]; cyclic AMP assay,weaker maximal effects
same,fold more cyclic AMP than MRE-269,[3]; ralinepag vs MRE-269,2 fold
same,plasma half-life,Half-life in vivo,relatively long plasma half-life
